Experiments:
Trypanosoma brucei [1] = experiment: Inhibition of Trypanosoma brucei GalE at 50 uM
UDP-glucose 4-epimerase = molecular target: T1, UDP-glucose 4-epimerase (Homo sapiens, UniProt Q14376); experiment: Inhibition of human GalE by HPAEC assay
T1 sequence (Q14376 whole entry): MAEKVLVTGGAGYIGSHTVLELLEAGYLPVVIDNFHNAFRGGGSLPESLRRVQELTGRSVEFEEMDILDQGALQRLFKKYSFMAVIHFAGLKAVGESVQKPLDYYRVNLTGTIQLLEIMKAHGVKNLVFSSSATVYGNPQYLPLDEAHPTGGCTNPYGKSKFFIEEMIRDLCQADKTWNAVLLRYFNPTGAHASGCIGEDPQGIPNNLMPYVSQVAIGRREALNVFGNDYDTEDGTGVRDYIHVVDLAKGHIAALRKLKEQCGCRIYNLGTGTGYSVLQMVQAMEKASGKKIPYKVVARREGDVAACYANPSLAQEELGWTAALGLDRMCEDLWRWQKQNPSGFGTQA

Trypanosoma brucei [2] = experiment: Cytotoxicity against Trypanosoma brucei by Alamar blue assay; type: organism-based
CHO-K1 = experiment: Cytotoxicity against CHO-K1 cells by Alamar blue assay; type: cell-based; details: Cricetulus griseus
[3] = Inhibition of Trypanosoma brucei GalE by HPAEC assay
[4] = Inhibition of Trypanosoma brucei GalE after 1 hr by HPAEC assay

Structure (SMILES)	inhibition (Trypanosoma brucei [1]) [%]	IC50 (UDP-glucose 4-epimerase) [µM]	EC50 (Trypanosoma brucei [2]) [µM]	EC50 (CHO-K1) [µM]	IC50 [3] [µM]	IC50 [4] [µM]
CC/C(=C(/CC)c1ccc(O)cc1)c1ccc(O)cc1 [DIETHYLSTILBESTROL]	> 75	75	2.8	8.5	17	–
O=c1c2ccccc2[se]n1-c1ccccc1 [EBSELEN]	> 75	0.014	4.1	6.1	0.62	–
C=C(CC)C(=O)c1ccc(OCC(=O)O)c(Cl)c1Cl [ETHACRYNIC ACID]	> 75	14	3.3	56	3.1	–
Clc1cc(Cl)c(OCC#CI)cc1Cl [HALOPROGIN]	> 75	0.5	0.3	0.6	–	> 100
O=C(NCCSSCCNC(=O)/C(Cc1ccc(O)c(Br)c1)=N/O)/C(Cc1ccc(O)c(Br)c1)=N/O [PSAMMAPLIN A]	> 75	3.6	2.6	0.9	15	–

Source: ChEMBL document CHEMBL1139726, “Identification of novel inhibitors of UDP-Glc 4'-epimerase, a validated drug target for african sleeping sickness” (Bioorg Med Chem Lett, 2006)
